Measured values as given in patent US11161842B2, “Bifunctional molecules for degradation of EGFR and methods of use” (Dana-Farber Cancer Institute, Inc., priority 2016, dated 2021).

Experiments:
[1] = molecular target: T1, T790M/L858R/C797S transformed Ba/F3 cells (Homo sapiens, UniProt P00533, T790M/C797S/L858R, cells depend on it); experiment: Ba/F3 cell proliferation (MTS) assay, T790M/L858R/C797S; format: cell-based, murine; conditions: antiproliferative activity
T1 construct: The constructs were shuttled into the retroviral vector JP 1540 using the BD Creator™ System (BD Biosciences)
T1 sequence (P00533 whole entry T790M/C797S/L858R): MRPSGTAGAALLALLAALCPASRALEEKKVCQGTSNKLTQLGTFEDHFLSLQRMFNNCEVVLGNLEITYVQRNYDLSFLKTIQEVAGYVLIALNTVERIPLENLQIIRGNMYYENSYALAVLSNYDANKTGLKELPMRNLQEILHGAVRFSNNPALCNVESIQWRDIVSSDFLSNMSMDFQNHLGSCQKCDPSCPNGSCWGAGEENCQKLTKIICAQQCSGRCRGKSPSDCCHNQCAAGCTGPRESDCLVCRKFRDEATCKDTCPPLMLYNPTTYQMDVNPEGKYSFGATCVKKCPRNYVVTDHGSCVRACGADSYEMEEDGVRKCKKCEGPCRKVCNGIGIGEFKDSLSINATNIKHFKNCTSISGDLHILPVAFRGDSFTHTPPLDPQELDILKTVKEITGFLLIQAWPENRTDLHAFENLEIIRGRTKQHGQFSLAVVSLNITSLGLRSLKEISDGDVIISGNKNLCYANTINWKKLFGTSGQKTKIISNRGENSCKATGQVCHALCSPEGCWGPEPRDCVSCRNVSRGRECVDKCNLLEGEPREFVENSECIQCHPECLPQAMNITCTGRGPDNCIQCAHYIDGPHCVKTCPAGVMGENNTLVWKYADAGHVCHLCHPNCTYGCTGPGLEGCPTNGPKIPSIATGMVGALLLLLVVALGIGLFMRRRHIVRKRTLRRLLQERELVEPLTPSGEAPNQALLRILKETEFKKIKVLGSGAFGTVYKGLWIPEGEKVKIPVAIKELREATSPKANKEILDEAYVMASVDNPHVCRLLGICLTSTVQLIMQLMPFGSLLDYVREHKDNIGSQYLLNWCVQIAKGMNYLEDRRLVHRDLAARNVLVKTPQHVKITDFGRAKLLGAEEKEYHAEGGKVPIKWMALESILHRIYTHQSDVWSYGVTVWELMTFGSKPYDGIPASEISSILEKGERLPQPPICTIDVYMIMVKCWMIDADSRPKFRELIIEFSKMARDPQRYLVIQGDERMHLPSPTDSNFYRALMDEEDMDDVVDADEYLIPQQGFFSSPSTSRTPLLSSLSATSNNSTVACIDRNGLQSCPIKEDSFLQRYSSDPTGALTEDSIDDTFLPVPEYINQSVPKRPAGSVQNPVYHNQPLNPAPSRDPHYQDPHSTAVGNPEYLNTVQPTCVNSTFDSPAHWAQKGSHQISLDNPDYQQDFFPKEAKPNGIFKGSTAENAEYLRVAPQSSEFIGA

[2] = molecular target: T2, T790M/L858R transformed Ba/F3 cells (Homo sapiens, UniProt P00533, T790M/L858R, cells depend on it); experiment: Ba/F3 cell proliferation (MTS) assay, T790M/L858R; format: cell-based, murine; conditions: for EC50: antiproliferative activity; for % control: compound at 1 μM, inhibition of growth as percent of control
T2 construct: The constructs were shuttled into the retroviral vector JP 1540 using the BD Creator™ System (BD Biosciences)
T2 sequence (P00533 whole entry T790M/L858R): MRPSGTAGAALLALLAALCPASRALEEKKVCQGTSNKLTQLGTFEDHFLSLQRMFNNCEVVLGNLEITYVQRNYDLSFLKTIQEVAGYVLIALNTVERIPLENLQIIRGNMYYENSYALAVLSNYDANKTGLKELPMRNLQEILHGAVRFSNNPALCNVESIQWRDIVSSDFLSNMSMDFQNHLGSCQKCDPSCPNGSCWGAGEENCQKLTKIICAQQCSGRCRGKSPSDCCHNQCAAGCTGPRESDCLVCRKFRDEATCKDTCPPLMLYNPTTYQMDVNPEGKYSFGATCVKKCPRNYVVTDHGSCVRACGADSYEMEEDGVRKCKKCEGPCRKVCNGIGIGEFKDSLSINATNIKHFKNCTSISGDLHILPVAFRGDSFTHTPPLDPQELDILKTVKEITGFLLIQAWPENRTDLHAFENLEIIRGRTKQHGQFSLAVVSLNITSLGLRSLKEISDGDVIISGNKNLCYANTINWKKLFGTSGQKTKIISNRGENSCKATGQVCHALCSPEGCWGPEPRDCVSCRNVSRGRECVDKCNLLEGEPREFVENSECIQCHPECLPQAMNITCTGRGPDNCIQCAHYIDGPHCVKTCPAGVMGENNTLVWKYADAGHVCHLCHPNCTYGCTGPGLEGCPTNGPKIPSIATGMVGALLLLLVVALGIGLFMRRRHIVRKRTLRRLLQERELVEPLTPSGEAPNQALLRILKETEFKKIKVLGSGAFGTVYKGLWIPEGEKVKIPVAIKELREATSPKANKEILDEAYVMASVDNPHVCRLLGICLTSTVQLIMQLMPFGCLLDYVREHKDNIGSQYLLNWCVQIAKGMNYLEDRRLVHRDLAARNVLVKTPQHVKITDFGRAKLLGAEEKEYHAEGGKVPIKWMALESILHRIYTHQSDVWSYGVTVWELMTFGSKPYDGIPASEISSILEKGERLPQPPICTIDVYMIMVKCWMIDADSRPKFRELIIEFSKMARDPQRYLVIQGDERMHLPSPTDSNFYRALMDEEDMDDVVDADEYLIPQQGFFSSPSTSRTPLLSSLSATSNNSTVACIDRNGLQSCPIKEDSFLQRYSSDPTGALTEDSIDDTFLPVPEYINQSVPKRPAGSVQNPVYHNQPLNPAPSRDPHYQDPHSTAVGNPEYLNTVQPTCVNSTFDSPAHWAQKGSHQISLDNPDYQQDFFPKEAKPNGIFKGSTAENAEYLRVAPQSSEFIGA
Source text: The EGFR mutant L858R, Del E746_A750, L858R/T790M, DelE746_A750/T790M, L858R/T790M/C797S and Del/T790M/C797S Ba/F3 cells have been previously described (Zhou, W., Ercan, D., Chen, L., Yun, C. H., Li, D., Capelletti, M., Cortot, A. B., Chirieac, L., Iacob, R. E., Padera, R., et al. “Novel mutant-selective EGFR kinase inhibitors against EGFR T790M,” Nature 462, (2009), 1070-1074). All cell lines were maintained in RPMI 1640 (Cellgro; Mediatech Inc., Herndon, Calif.) supplemented with 10% FBS 100 units/mL penicillin, 100 units/mL streptomycin, and 2 mM glutamine. L858R cells were maintained in ACL-4 media (Invitrogen, Carlsbad, Calif.) supplemented with 5% FBS, 100 units/mL penicillin, 100 units/mL streptomycin, and 2 mM glutamine. The EGFR I941R mutation was introduced via site directed mutagenesis using the Quick Change Site-Directed Mutagenesis kit (Stratagene; La Jolla, Calif.) according to the manufacturer's instructions. All constructs were confirmed by DNA sequencing. The constructs were shuttled into the retroviral vector JP 1540 using the BD Creator™ System (BD Biosciences). Ba/F3 cells were infected with retrovirus and according to standard protocols, as described previously (Zhou et al, Nature 2009). Stable clones were obtained by selection in puromycin (2 μg/ml).
Growth and inhibition of growth was assessed by MTS assay and was performed according to previously established methods (Zhou et al., Nature 2009). The MTS assay is a colorimetric method for determining the number of viable cells that is based on the bioreduction of MTS by cells to a formazan product that is soluble in cell culture medium and can be detected spectrophotometrically. Ba/F3 cells of different EGFR genotypes were exposed to treatment for 72 hours and the number of cells used per experiment determined empirically and has been previously established (Zhou et al., Nature 2009). All experimental points were set up in six wells and all experiments were repeated at least three times. […] The curves were fitted using a non-linear regression model with a sigmoidal dose response.
Compounds of Table 1 were tested at a concentration of 1 μM against T790M/L858R transformed Ba/F3 cells. The assay, as described in Example 42, measured inhibition of growth as a percent of the inhibitory activity of the control. In Table 1, A is 0<% control <25, B is 25<% control <50, C is 50<% control <75, and D is 75<% control.
Compounds of Table 2 were tested in a T790M/L858R transformed Ba/F3 cell line as described in Example 42 and the EC50 values were calculated. In Table 2, A is EC50<500 nM, B is 500 nM<EC50<1000 nM, C is 1000 nM<EC50<5000 nM, and D is 5000 nM<EC50.

SMILES	EC50 [1] [µM]	EC50 [2] [µM]	% control [2]
Cc1ncsc1-c1ccc([C@H](C)NC(=O)[C@@H]2C[C@@H](O)CN2C(=O)[C@@H](NC(=O)CCOCCOCCN2CCN(c3ccc(-c4ccc5c(c4)C(=O)N(C(C(=O)Nc4nccs4)c4ccccc4)C5)cn3)CC2)C(C)(C)C)cc1 (stereo partly drawn) [Compound I-24, (2S,4R)-1-((2S)-3,3-Dimethyl-2-(3-(2-(2-(4-(5-(3-oxo-2-(2-oxo-1-phenyl-2-(thiazol-2-ylamino)ethyl)isoindolin-5-yl)pyridin-2-yl)piperazin-1-yl)ethoxy)ethoxy)propanamido)butanoyl)-4-hydroxy-N—((S)-1-(4-(4-methylthiazol-5-yl)phenyl)ethyl)pyrrolidine-2-carboxamide]	> 5	> 5	
O=C1CCC(N2C(=O)c3cccc(NCCOCCOCCC(=O)N4CCN(c5ccc(-c6ccc7c(c6)C(=O)N(C(C(=O)Nc6nccs6)c6cc(F)ccc6O)C7)cc5)CC4)c3C2=O)C(=O)N1 (centres unmarked) [Compound I-28, 2-(6-(4-(4-(3-(2-(2-((2-(2,6-dioxopiperidin-3-yl)-1,3-dioxoisoindolin-4-yl)amino)ethoxy)ethoxy)propanoyl)piperazin-1-yl)phenyl)-1-oxoisoindolin-2-yl)-2-(5-fluoro-2-hydroxyphenyl)-N-(thiazol-2-yl)acetamide]	> 5	0.5 to 1	A (A is 0<% control <25)
O=C1CCC(N2C(=O)c3cccc(NCCOCCC(=O)N4CCN(c5ccc(-c6ccc7c(c6)C(=O)N(C(C(=O)Nc6nccs6)c6cc(F)ccc6O)C7)cc5)CC4)c3C2=O)C(=O)N1 (centres unmarked) [Compound I-29, 2-(6-(4-(4-(3-(2-((2-(2,6-dioxopiperidin-3-yl)-1,3-dioxoisoindolin-4-yl)amino)ethoxy)propanoyl)piperazin-1-yl)phenyl)-1-oxoisoindolin-2-yl)-2-(5-fluoro-2-hydroxyphenyl)-N-(thiazol-2-yl)acetamide]	> 5	0.5 to 1	A (A is 0<% control <25)

Continued, values first:

EC50 [1] [µM]	EC50 [2] [µM]	% control [2]	SMILES
> 5	> 5	D (D is 75<% control)	Cc1ncsc1-c1ccc([C@H](C)NC(=O)[C@@H]2C[C@@H](O)CN2C(=O)[C@@H](NC(=O)CCOCCOCCOCCN2CCN(c3ccc(-c4ccc5c(c4)C(=O)N(C(C(=O)Nc4nccs4)c4ccccc4)C5)cn3)CC2)C(C)(C)C)cc1 (stereo partly drawn) [Compound I-23, (2S,4R)-1-((14S)-14-(tert-Butyl)-12-oxo-1-(4-(5-(3-oxo-2-(2-oxo-1-phenyl-2-(thiazol-2-ylamino)ethyl)isoindolin-5-yl)pyridin-2-yl)piperazin-1-yl)-3,6,9-trioxa-13-azapentadecan-15-oyl)-4-hydroxy-N—((S)-1-(4-(4-methylthiazol-5-yl)phenyl)ethyl)pyrrolidine-2-carboxamide]
1 to 5	< 0.5	A (A is 0<% control <25)	O=C1CCC(N2C(=O)c3cccc(NCCOCCOCCN4CCN(c5ccc(-c6ccc7c(c6)C(=O)N(C(C(=O)Nc6nccs6)c6cc(F)ccc6O)C7)cc5)CC4)c3C2=O)C(=O)N1 (centres unmarked) [Compound I-33]
